The source made the active and inactive calls.
What was measured:
HEK293 = assay: HEK293T cell cytotoxicity, dose response, cytotoxicity control, ATP luminescence, cherry-pick samples (AID 687005); format: functional, cell-based; conditions: Homo sapiens;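 also: cells exposed to compound for 48 hours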
[1] = HEK293 Cytotoxicity Assay Measured in Cell-Based System Using Plate Reader - 7071-01_Inhibitor_Dose_CherryPick_Activity_Set2.; format: functional
[2] = P. falciparum Dd2 growth inhibitors, dose response, SYBR Green, cherry-picked samples (AID 1159567); format: functional, cell-based
[3] = HepG2 cell cytotoxicity, dose response, cytotoxicity control, cherry-picked samples (AID 1159577); format: functional, cell-based
[4] = inhibitors of HIV Env-driven cell fusion, dose response, cherry-pick (AID 652057); format: functional, cell-based
[5] = CEM21 cell cytotoxicity, dose response, cytotoxicity control, plate reader, dry powder (AID 687026); format: functional, cell-based
[6] = ZM109 Env clade C HIV-1 fusion inhibitors, dose response, HeLa effector, CEM target cells, luciferase, cherry-pick (AID 652058); format: functional, cell-based
[7] = HIV Env cell-cell fusion inhibitors, dose response, HIV entry, plate reader, dry powder (AID 687023); format: functional, cell-based
[8] = inhibitors of clade B AD8 Env fusion, dose response, cell-based, cherry-pick (AID 652062); format: functional;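 also: luciferase signal from cell-cell fusion driven by HIV-1 clade B AD8 Env; potency is for inhibitors of fusion seen as a drop in luminescence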
[9] = inhibitors of PGC1a acetylation in cells, dose response, cell-based, cherry-picked samples (AID 720514); format: functional;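 also: potency may reflect raised or lowered acetylation signal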
[10] = Late stage assay provider results from the probe development effort to identify inhibitors of the Plasmodium falciparum M18 Aspartyl Aminopeptidase (M18AAP): radiolabel-based cell-based dose response assay to identify compounds that inhibit P. falciparum growth in RBCs, Set 2..; format: functional
[11] = P. falciparum Dd2 growth inhibitors, dose response, SYBR Green, dry powder samples, set 4 (AID 1159572); format: functional, cell-based
[12] = P. falciparum Dd2 growth inhibitors, dose response, SYBR Green, dry powder samples, set 9 (AID 1159568); format: functional, cell-based
[13] = molecular target: RNA-editing ligase 1, mitochondrial (Trypanosoma brucei brucei, UniProt P86926); assay: TbREL1 ligase inhibitors, dose response, biochemical, fluorescence, Trypanosoma brucei (AID 1117295); format: functional
[14] = cytotoxicity toward HCT116 cells – cell-based, CellTiter-Glo luminescence, IC50, dose response (AID 1117332); format: functional; conditions: HCT-116
[15] = HeLa 2N DNA content increase, dose response, cell-based, IC50 (AID 1117349); format: functional
[16] = cytotoxicity toward Colo320 cells – cell-based, CellTiter-Glo luminescence, IC50, dose response (AID 1117334); format: functional; conditions: COLO 320
[17] = RKO cell viability reduction, dose response, CellTiter-Glo luminescence (AID 1117322); format: functional
[18] = CellTiter-Glo luminescent dose response of DLD-1 viability loss (AID 1117352); format: functional
[19] = HCT116 cell viability decrease, GSK3B pretreatment – CellTiter-Glo, IC50, dose response (AID 1117339); format: functional; conditions: HCT-116
[20] = SNU-C1 cell viability reduction, dose response, CellTiter-Glo luminescence (AID 1117323); format: functional, cell-based
[21] = HeLa 4N DNA content increase, dose response, cell-based, IC50 (AID 1117351); format: functional
[22] = cytotoxicity toward HT-29 cells – cell-based, CellTiter-Glo luminescence, IC50, dose response (AID 1117330); format: functional
[23] = Concentration-dependent survival of SW480 colon cancer line, luminescence detection with CellTiter-Glo, half-maximal inhibitory concentration (AID 1117338); format: functional

RNA-editing ligase 1, mitochondrial, sequence (P86926 whole entry): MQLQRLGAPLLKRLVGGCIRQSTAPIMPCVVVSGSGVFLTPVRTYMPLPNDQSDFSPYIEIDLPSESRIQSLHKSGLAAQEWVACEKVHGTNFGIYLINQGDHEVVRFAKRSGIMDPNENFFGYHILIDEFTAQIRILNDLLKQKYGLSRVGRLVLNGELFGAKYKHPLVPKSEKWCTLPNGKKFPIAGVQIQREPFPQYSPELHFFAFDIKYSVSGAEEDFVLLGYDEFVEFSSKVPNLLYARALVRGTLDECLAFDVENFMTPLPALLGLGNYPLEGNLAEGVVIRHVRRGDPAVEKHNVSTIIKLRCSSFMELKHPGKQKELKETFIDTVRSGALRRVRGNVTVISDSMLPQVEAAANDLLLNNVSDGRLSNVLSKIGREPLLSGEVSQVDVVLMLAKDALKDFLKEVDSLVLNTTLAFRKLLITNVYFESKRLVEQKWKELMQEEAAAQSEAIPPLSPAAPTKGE

With `C[C@H](CO)N1C[C@H](C)[C@H](CN(C)S(=O)(=O)c2ccc(F)cc2)Oc2ccc(NS(=O)(=O)c3ccc(Cl)cc3)cc2C1=O` the AC50 (HEK293) was 18.9 µM (active), the AC50 [1] was 18.9 µM (active) and the AC50 [2] was 10 µM (active). The AC50 [3] was > 39 µM (inactive).

With `CCCNC(=O)N1[C@H](C#N)[C@H](c2ccc(-c3cccnc3)cc2)[C@@H]1CO` the AC50 [4] was 0.93 µM (active), the AC50 [5] was > 70 µM (inactive) and the AC50 [6] was 10.2 µM (active). The AC50 [7] was 1.61 µM (active) and the AC50 [8] was 4.97 µM (active).

In the case of `OC[C@@H]1[C@H](c2ccc(/C=C/c3ccccc3)cc2)[C@H]2CN(CCC(F)(F)F)CCCCN12`, the AC50 [9] is reported as 17.4 µM (active).

For `Oc1ccc(C2CCN(c3ccnc4ccccc34)C2)cc1O` (centres undefined), the IC50 [10] was 0.93 µM (active).

In the case of `COc1ccc2c3c(n(C)c2c1)[C@H](CO)N(C(C)=O)CC31CCN(C(=O)Nc2ccccc2F)CC1`, the AC50 [11] is reported as 6.63 µM (active).

For `C[C@H](CO)N1C[C@H](C)[C@@H](CN(C)C(=O)Nc2ccc(C(F)(F)F)cc2)Oc2c(NC(=O)c3ccc(-c4nccs4)cc3)cccc2C1=O`, the AC50 [12] was 6.41 µM (active).

In the case of `COC(=O)C1=C(C)N(Cc2ccccc2C(F)(F)F)C(NCc2ccc(OC)cc2)=NC1c1cccc(F)c1` (centres undefined), the IC50 [13] is reported as > 96.6 µM (inactive).

With `O=C(NOCC1CC1)c1ccc(F)c(F)c1Nc1ccc(I)cc1Cl` [CI-1040] the IC50 [14] was 0.00179 µM (active), the IC50 [15] was > 10 µM (inactive) and the IC50 [16] was 0.848 µM (active). The IC50 [17] was 0.00319 µM (active), the IC50 [18] was 2.16 µM (active) and the IC50 [19] was 0.969 µM (active). The IC50 [20] was 0.0171 µM (active), the IC50 [21] was > 10 µM (inactive) and the IC50 [22] was 0.0263 µM (active). For the same compound, the IC50 [23] was 0.00495 µM (active).
